Two compounds from US20230219900A1, “Sodium 2-[(4S)-8-fluoro-2-[4-(3-methoxyphenyl)piperazin-1-yl]-3-[2-methoxy-5-(trifluoromethyl)phenyl]-4H-quinazolin-4-yl]acetate monohydrate, its preparation and use” (AIC246 AG & CO. KG, priority 2020, published 2023) can be followed below.

What all share (format): physicochemical
Series [1] is described as follows: Thermal stability / decomposition by thermogravimetric analysis (TGA). As to the method:
Thermogravimetric analysis (TGA): Thermogravimetric analyses were recorded in a Mettler Toledo TGA/SDTA851 with a balance MT1 type. Approximately 3-4 mg of sample were weighed (using a MX5 Mettler Toledo microbalance) into 40 μL aluminium crucibles with a pinhole lid and heated under nitrogen (10 mL/min) at 10° C./min from 30° C. to 300° C. Programs used: Data collection and evaluation with software STARe.

Series [2] is described as follows: Stability experiments: ageing (ambient conditions). The note with it: for Time stable at ambient conditions: monohydrate.
A short description of series [3]: Stability experiments: ageing (humidity chamber).
Series [4] in a line: Stability experiments: heating (vacuum oven). The settings on record: 2-3 mbar.
Series [5] in a line: Solubility in an aqueous medium. The note with it: in particular at physiological pH.
Series [6] in a line: Storage stability in an aqueous medium. The settings on record: in particular at physiological pH.
A further series in a line: Dynamic vapor sorption. As to the method: The sodium (S)-{8-fluoro-2-[4-(3-methoxyphenyl)piperazine-1-yl]-3-[2-methoxy (trifluoromethyl)phenyl]-3,4-dihydroquinazoline-4-yl}acetate monohydrate obtained from examples 07 and 08 were analyzed using X-Ray Diffraction, NMR spectroscopy, Thermal gravimetric analysis, Differential scanning calorimetry and dynamic vapor sorption.

Regarding `COc1cccc(N2CCN(C3=Nc4c(F)cccc4[C@H](CC(=O)[O-])N3c3cc(C(F)(F)F)ccc3OC)CC2)c1.[Na+]` [Form A, Sodium (S)-{8-fluoro-2-[4-(3-methoxyphenyl)piperazine-1-yl]-3-[2-methoxy-5-(trifluoromethyl)phenyl]-3,4-dihydroquinazoline-4-yl}acetate], the “Decomposition temperature (TGA)” value in series [1] (TGA) was “Decomposition at ca. 250 °C”. Moreover, the “Stability under ambient conditions (in words)” value in series [2] is on record as “not stable under ambient conditions”. For the same compound, the “Stability, ageing (ambient conditions)” value in series [2] (25° C., 30-40% RH, 24 hours) is given as 25° C., 30-40% RH, 24 hours: Turns into; in series [2] (within 24 hours) it was “Complete transition into Form B within in”. For the same compound, the “Stability, ageing (humidity chamber)” value in series [3] (25° C./60% RH, 24-72 hours) is 25° C./60% RH, 24-72 hours: Turns into.

With `COc1cccc(N2CCN(C3=Nc4c(F)cccc4[C@H](CC(=O)[O-])N3c3cc(C(F)(F)F)ccc3OC)CC2)c1.O.[Na+]` [sodium letermovir monohydrate, sodium 2-[(4S)-8-fluoro-2-[4-(3-methoxyphenyl)piperazin-1-yl]-3-[2-methoxy-5-(trifluoromethyl)phenyl]-4H-quinazolin-4-yl]acetate monohydrate], the “Temperature up to which thermally stable (TGA)” value in series [1] (as judged by TGA) is “above 80 °C”. In addition, the “Stability, heating (vacuum oven)” value in series [4] (40° C., 15 h) was 40° C., 2-3 mbar, 15 h: No changes,; in series [4] (50° C., 60 h), 50° C., 2-3 mbar, 60 h: No changes. Further, in series [2] (after 4 weeks), the “Stability, ageing (ambient conditions, closed vial)” value is on record as “No significant changes after 4 weeks”. Moreover, the “Time stable at ambient conditions” value is “over 6 months” in series [2] (listed as Form B) and “over 4 weeks” in series [2]. Further, in series [5], the Solubility entry is reported as “readily soluble”. In addition, the Storage stability result in series [6] is recorded as “good storage stability”. In addition, the “Dynamic vapor sorption weight increase” value in “Dynamic vapor sorption” (from 10 to 80% RH) was >9.5% weight increase from 10 to 80% RH; in the series “Dynamic vapor sorption” (from 80 to 90% RH), >8% weight increase from 80 to 90% RH. The “Stability, ageing (humidity chamber)” value is recorded as 25° C./60% RH, 72 hours: minor changes in series [3] (25° C./60% RH, 72 hours) and 30° C./75% RH, 48 hours: amorphous in series [3] (30° C./75% RH, 48 hours). Further, the “Ageing at higher temperatures and higher humidity” value in series [3] (higher temperatures and higher humidity) is listed as “does not age”.
